Assay results reported in patent publication US9238014B2, “Pharmaceutical composition for treating alcohol dependency” (priority 2009, dated 2016).
Structures can show the parent of a compound that is named as a salt.

Test system: male mouse of the C57BL/6J line
Test: Alcohol/water preference (alcohol consumption) after forced alcoholization in mice
Assay type: in vivo
Set-up: key to Alcohol/Water preference index (Pref.), Mean / Alcohol/Water preference index (Pref), Mean: Pref = (Alcohol−Water)/(Alcohol+Water); >0 alcohol, <0 water preference
Details: for Alcohol/Water preference index (Pref), Mean: Example 2, Table D, n = 9; for effect on alcohol consumption (in words): same model and same doses, administered separately or in combination as stated; for Alcohol/Water preference index (Pref.), Mean: Experiment A, single agent 1 mg/kg injected before session, n = 6; for effect on alcoholic preference (in words): on this model and at the doses used, vs saline control, significant if p≦0.05
Protocol: All the products used for the treatments are dissolved in saline (0.9% NaCl) so that the injection volume is 10 ml/kg of body weight.
The animals are kept in their cage throughout the experiment. They are subjected to forced alcoholization, with 10% alcohol as the only drink, for 15 days. They are then returned to normal conditions with water to drink.
Different groups of mice are constituted depending on the treatments: controls (injected with saline), prazosin 1 mg/kg, cyproheptadine 1 mg/kg, prazosin 1 mg/kg+cyproheptadine 1 mg/kg, prazosin 0.5 mg/kg+cyproheptadine 1 mg/kg,
The tests begin 24 hours after forced alcoholization is stopped. They proceed during the first two hours of darkness (period of activity), during which the animals have access to a feeder with water and a feeder with alcohol. The amounts of water and of alcohol consumed are measured after said two hours.
Several sessions of measuring the consumption of water and of alcohol are carried out. For the first 2 sessions (S1-S2) the animals receive an injection of saline; they receive the treatments (prazosin, cyproheptadine, prazosin+cyproheptadine) or saline (for the control group) in the next sessions (T1, T2, T3). The treatments are carried out 10 minutes before each session.
The Alcohol/Water preference index (Pref.) is calculated as follows: Pref.=(Consumption Alcohol−Water)/(Consumption Alcohol+Water)
0<Pref.≦1: Preference for alcohol
Pref.=0: No preference alcohol vs water
−1≦Pref.<0: Preference for water (i.e. aversion to alcohol)
During the sessions for measuring alcohol consumption, the animals receive the treatments 30 minutes before said measurement.
The results are expressed in mean value and standard error of mean (SEM). The preference indices (Pref) of the treated groups are compared with that of the control group by the bilateral Student t-test for independent groups. The values shown (p vs Con) are the probabilities for the difference between treated group and control group being due to chance. A difference is regarded as statistically significant if p≦0.05.
The cyproheptadine/alfuzosin, cyproheptadine/terazosin and cyproheptadine/tamsulosin combinations were tested in experimental conditions identical to those described in example 1 above and using the same model.

[1] = alpha1 antagonist alone 0.5 mg/kg, treatment session T1
[2] = alpha1 antagonist alone 0.5 mg/kg, treatment session T2
[3] = alpha1 antagonist alone 0.5 mg/kg, treatment session T3

Row | Structure (SMILES) | Alcohol/Water preference index (Pref), Mean [1] | Alcohol/Water preference index (Pref), Mean [2] | Alcohol/Water preference index (Pref), Mean [3] | effect on alcohol consumption (in words) | Alcohol/Water preference index (Pref), Mean (cyproheptadine alone 1 mg/kg, treatment session T1) | Alcohol/Water preference index (Pref), Mean (cyproheptadine alone 1 mg/kg, treatment session T2) | Alcohol/Water preference index (Pref), Mean (cyproheptadine alone 1 mg/kg, treatment session T3) | Alcohol/Water preference index (Pref.), Mean (treatment session T1) | Alcohol/Water preference index (Pref.), Mean (treatment session T2) | Alcohol/Water preference index (Pref.), Mean (treatment session T3) | effect on alcoholic preference (in words) | effect on alcohol consumption (in words) (hydrochloride) | effect on alcohol consumption (in words) (listed as cyproheptadine, hydrochloride)
1 | COc1cc2nc(N(C)CCCNC(=O)C3CCCO3)nc(N)c2cc1OC (centres unmarked) [Alfuzosin, N-[3-[(4-amino-6,7-dimethoxy-quinazolin-2-yl)-methyl-amino]propyl]tetrahydrofuran-2-carboxamide] | 0.59 | 0.62 | 0.63 | do not have an effect | – | – | – | – | – | – | – | – | –
2 | CN1CCC(=C2c3ccccc3C=Cc3ccccc32)CC1 [Cyproheptadine, 4-(5H-dibenzo[a,d]cyclohepten-5-ylidene)-1-methylpiperidine hydrochloride] | – | – | – | – | 0.91 | 0.76 | 0.81 | 0.92 | 0.82 | 0.82 | do not have a significant effect | do not have an effect | do not have any effect
3 | COc1cc2nc(N3CCN(C(=O)c4ccco4)CC3)nc(N)c2cc1OC [Prazosin, 2-[4-(2-furoyl)piperazin-1-yl]-6,7-dimethoxyquinazolin-4-amine] | – | – | – | do not have any effect | – | – | – | 0.78 | 0.57 | 0.72 | do not have a significant effect | – | –
4 | CCOc1ccccc1OCCN[C@H](C)Cc1ccc(OC)c(S(N)(=O)=O)c1 [Tamsulosin, (R)-5-(2-(2-(2-ethoxyphenoxy)ethylamino)propyl)-2-methoxybenzenesulfonamide] | 0.68 | 0.79 | 0.77 | do not have an effect | – | – | – | – | – | – | – | – | –
5 | COc1cc2nc(N3CCN(C(=O)C4CCCO4)CC3)nc(N)c2cc1OC (centres unmarked) [Terazosin, 6,7-dimethoxy-2-[4-(tetrahydrofuran-2-ylcarbonyl)piperazin-1-yl]quinazolin-4-amine] | 0.64 | 0.75 | 0.72 | do not have an effect | – | – | – | – | – | – | – | – | –
